Assay results from patent US9901602B2, “Ejaculum of animals as medicinal material and uses thereof in medicaments for treatment of diseases such as tumors, depression, etc” (Hui CHENG, priority 2008, dated 2018).

System: S180 tumor cells (mouse sarcoma)
Settings: mice sarcoma S180, stomach lavage, 0.3 ml/10 g body weight/day×10
From the text: The mice inoculated by S180 tumor cells (mouse sarcoma) were used as model animals.
In the meantime, non-inoculated mice were feed and used as the native control group.

O=P1(N(CCCl)CCCl)NCCCO1 (centres unmarked) [cyclophosphamide]
Mice body (GPT): 39.2 ± 5.69
Weight of Tumor (g) (X ± SD): 0.614 ± 0.268 g
